Source: patent US5610282A (The United States of America as represented by the …, priority 1995, dated 1997)

Target: T1, D1 dopamine receptor (Rattus norvegicus, UniProt P18901)
T1 construct: The longest open reading frame in this cDNA codes for a 487 residue protein; expressed in transfected cells; host or cells: COS-7 cells (transient, plasmid pSRalpha-D1)
Format: cell-based
Conditions: agonist 1 uM, with 0.5 uM propranolol

T1 sequence (P18901 whole entry): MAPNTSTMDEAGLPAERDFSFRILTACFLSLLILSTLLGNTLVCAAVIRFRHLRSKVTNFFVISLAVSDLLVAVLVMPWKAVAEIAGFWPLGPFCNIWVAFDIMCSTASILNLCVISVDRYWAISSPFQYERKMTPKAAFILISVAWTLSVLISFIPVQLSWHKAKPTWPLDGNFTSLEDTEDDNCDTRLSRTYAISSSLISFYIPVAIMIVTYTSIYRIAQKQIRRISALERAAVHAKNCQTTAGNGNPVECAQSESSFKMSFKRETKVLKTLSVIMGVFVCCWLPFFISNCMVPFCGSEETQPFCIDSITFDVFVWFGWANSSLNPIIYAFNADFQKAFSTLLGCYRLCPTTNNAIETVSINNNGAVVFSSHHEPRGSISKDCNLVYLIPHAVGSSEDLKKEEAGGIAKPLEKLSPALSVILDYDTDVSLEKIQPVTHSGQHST

SMILES | stimulation of cAMP accumulation (in words)
CNC[C@H](O)c1ccc(O)c(O)c1 [epinephrine] | low potency relative to dopamine
Oc1cc2c(cc1O)C(c1ccccc1)CNCC2 (stereo not drawn) [SKF-38393 (-)isomer, SKF-38393] | lower potency
